Source: ChEMBL document CHEMBL5316347, “Design, Synthesis, and Biological Evaluation of Bipyridazine Derivatives as Stimulator of Interferon Genes (STING) Receptor Agonists” (J Med Chem, 2023)
Values belong to the molecule of their own block, whether it stands above or below them. The source made the active and inactive calls. The rule behind the calls is not given here.

How the values were obtained:
THP-1 = assay: Cytotoxicity against human THP-1 cells assessed as inhibition of cell growth upto 40 uM measured after 24 hrs in presence of PMA by CellTiter-Glo viability assay; type: toxicity, cell-based; conditions: thp-1, 24 h
[1] = molecular target: T1, Stimulator of interferon genes protein (Mus musculus, UniProt Q3TBT3); assay: Agonist activity at mouse STING in mouse RAW-Lucia ISG cells incubated for 24 hrs in presence of PMA by luciferase reporter assay; type: cell-based
T1 sequence (Q3TBT3 whole entry): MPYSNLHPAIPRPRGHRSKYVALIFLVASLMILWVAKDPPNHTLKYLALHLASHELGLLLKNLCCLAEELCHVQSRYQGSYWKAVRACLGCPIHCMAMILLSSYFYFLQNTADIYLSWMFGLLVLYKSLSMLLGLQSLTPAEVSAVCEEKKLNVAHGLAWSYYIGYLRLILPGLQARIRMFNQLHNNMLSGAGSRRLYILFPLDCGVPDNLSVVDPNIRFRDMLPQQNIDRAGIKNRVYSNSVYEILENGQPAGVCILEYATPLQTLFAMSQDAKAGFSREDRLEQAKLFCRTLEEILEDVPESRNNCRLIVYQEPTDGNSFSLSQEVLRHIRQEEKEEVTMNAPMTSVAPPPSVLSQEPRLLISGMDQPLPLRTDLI

[2] = molecular target: T1, Stimulator of interferon genes protein; assay: Agonist activity at mouse STING in STING knockout mouse RAW-Lucia ISG cells incubated for 24 hrs in presence of PMA by luciferase reporter assay; type: cell-based
[3] = molecular target: T1, Stimulator of interferon genes protein; assay: Agonist activity at mouse 6His-tagged recombinant STING CTD (144 to 378 residues) expressed in Escherichia coli BL21 (DE3) incubated for 10 mins by FRET assay
[4] = Toxicity in C57BL/6 mouse implanted with mouse B16-F10 cells assessed as body weight loss at 10 mg/kg, […] measured for 14 days; type: organism-based; conditions: in vivo, 336 h, time 14 day
[5] = Clearance in C57BL/6 mouse at 10 mg/kg, iv qd measured upto 24 hrs by LC-MS/MS analysis; type: ADME, organism-based; conditions: in vivo
[6] = Volume of distribution at steady state in C57BL/6 mouse at 10 mg/kg, iv qd measured upto 24 hrs by LC-MS/MS analysis; type: ADME, organism-based; conditions: in vivo, read-out: Vdss
[7] = AUC(0 to infinity) in C57BL/6 mouse at 10 mg/kg, iv qd measured upto 24 hrs by LC-MS/MS analysis; type: ADME, organism-based; set-up: time < 24 hrs, dose 10 mg/kg, route iv; conditions: in vivo
[8] = MRT(0 to infinity) in C57BL/6 mouse at 10 mg/kg, iv qd measured upto 24 hrs by LC-MS/MS analysis; type: ADME, organism-based; conditions: in vivo
[9] = AUC(0 to t) in C57BL/6 mouse at 10 mg/kg, iv qd measured upto 24 hrs by LC-MS/MS analysis; type: ADME, organism-based; set-up: dose 10 mg/kg, time < 24 hrs, route iv; conditions: in vivo
[10] = Half life in C57BL/6 mouse at 10 mg/kg, iv qd measured upto 24 hrs by LC-MS/MS analysis; type: ADME, organism-based; conditions: in vivo
[11] = tested on: Stimulator of interferon genes protein (Homo sapiens), Q86WV6 [UNDEFINED MUTATION]; conditions: dose 50.0 µM
[12] = molecular target: T2, Stimulator of interferon genes protein (Homo sapiens, UniProt Q86WV6); assay: Agonist activity at human STING in human THP1-Blue ISG cells incubated for 24 hrs in presence of PMA by luciferase reporter assay; type: cell-based
[13] = molecular target: T2, Stimulator of interferon genes protein; assay: Agonist activity at human STING in STING knockout human THP1-Blue ISG cells incubated for 24 hrs in presence of PMA by luciferase reporter assay; type: cell-based
[14] = molecular target: T3, Stimulator of interferon genes protein (Mus musculus) (UniProt Q3TBT3); assay: Binding affinity to mouse 6His-tagged recombinant STING CTD (144 to 378 residues) expressed in Escherichia coli BL21 (DE3) assessed as thermal stability at 50 uM by measuring change in melting temperature by SYPRO orange dye based analysis; conditions: filed as agonist
T3 sequence (whole entry): T1 sequence (Q3TBT3 whole entry)

B16-F10 [15] = assay: Antitumor activity against mouse B16-F10 cells implanted in C57BL/6 mouse assessed tumor growth inhibition at 10 mg/kg, ip qd measured for 14 days; type: functional, organism-based; conditions: time 14.0 day
B16-F10 [16] = assay: Antitumor activity against mouse B16-F10 cells implanted in C57BL/6 mouse assessed tumor growth inhibition at 30 mg/kg, ip qd measured for 14 days; type: functional, organism-based; conditions: time 14.0 day

Chain of Stimulator of interferon genes protein (Homo sapiens), Q86WV6 [UNDEFINED MUTATION] (Q86WV6 whole entry, looked up, change not shown): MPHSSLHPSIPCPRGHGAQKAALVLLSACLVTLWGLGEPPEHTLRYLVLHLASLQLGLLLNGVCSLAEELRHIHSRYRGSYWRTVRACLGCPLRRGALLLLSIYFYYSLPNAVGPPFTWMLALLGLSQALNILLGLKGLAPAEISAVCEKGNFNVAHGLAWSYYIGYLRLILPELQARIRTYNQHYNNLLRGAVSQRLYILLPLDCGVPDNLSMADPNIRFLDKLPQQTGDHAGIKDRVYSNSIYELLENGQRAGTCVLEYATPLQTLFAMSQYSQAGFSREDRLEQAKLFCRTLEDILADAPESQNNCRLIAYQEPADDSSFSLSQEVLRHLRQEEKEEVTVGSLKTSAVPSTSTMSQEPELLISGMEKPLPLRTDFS
T2 sequence (Q86WV6 whole entry): as the sequence (Q86WV6 whole entry, looked up, change not shown) above

EC50 [1]: 42 µM | EC50 [2]: > 200 µM | IC50 [3]: 1.9 µM
Structure (SMILES): O=C(Nc1cc(Br)c(F)cc1C(=O)O)c1ccc(-c2ccnnc2)nn1
Activity (THP-1): Non-Toxic

clearance [5]: 37.8 mL/min/kg | Vd [6]: 2.39 L/kg | AUC(0-inf) [7]: 4410 ng·h/mL | MRT inf [8]: 1.06 h | AUC(0-t) at 24 h [9]: 4390 ng·h/mL | EC50 [1]: 12.9 µM | half-life [10]: 2.1 h | EC50 [2]: > 200 µM | IC50 [3]: 0.96 µM
Structure (SMILES): C#Cc1cc(NC(=O)c2ccc(-c3ccnnc3)nn2)c(C(=O)O)cc1F
Activity [4]: Non-Toxic | Activity (THP-1): Non-Toxic

ΔTm ([11]; filed as agonist): 1 °C | EC50 [12]: 22.3 µM
Structure (SMILES): O=C(Nc1cc(F)c(F)cc1C(=O)O)c1ccc(Nc2cn[nH]c2)nn1

ΔTm [11]: 0 °C | EC50 [12]: > 100 µM
Structure (SMILES): O=C(Nc1cc(F)c(F)cc1C(=O)O)c1ccc(N2CCOCC2)nn1

ΔTm ([11]; filed as agonist): 1.5 °C | EC50 [12]: 11.5 µM
Structure (SMILES): O=C(Nc1cc(F)c(F)cc1C(=O)O)c1ccc(-n2cncn2)nn1

ΔTm [11]: 0 °C | EC50 [12]: 22.8 µM
Structure (SMILES): Cc1cncn1-c1ccc(C(=O)Nc2cc(F)c(F)cc2C(=O)O)nn1

clearance [5]: 43.8 mL/min/kg | Vd [6]: 2.38 L/kg | AUC(0-inf) [7]: 3830 ng·h/mL | MRT inf [8]: 0.894 h | AUC(0-t) at 24 h [9]: 3820 ng·h/mL | EC50 [1]: 5.22 µM | half-life [10]: 1.13 h | EC50 [2]: > 200 µM | IC50 [3]: 4.35 µM
Structure (SMILES): CCCn1c(NC(=O)c2cc(C)nn2CC)nc2cc(C(N)=O)cc(OC3COC3)c21
Activity (THP-1): Toxic

ΔTm ([11]; filed as agonist): 0.5 °C | EC50 [12]: > 100 µM
Structure (SMILES): O=C(Nc1ccccc1C(=O)O)c1ccc(-c2ccnnc2)nn1

ΔTm ([11]; filed as agonist): 3.5 °C | EC50 [12]: 4.5 µM
Structure (SMILES): O=C(Nc1ccc(Br)cc1C(=O)O)c1ccc(-c2ccnnc2)nn1

ΔTm [11]: 0 °C | EC50 [12]: 32.3 µM
Structure (SMILES): O=C(Nc1cc(F)c(F)cc1C(=O)O)c1ccc(-c2cncnc2)nn1

ΔTm ([11]; filed as agonist): 0 °C | EC50 [12]: 20.6 µM
Structure (SMILES): Cn1cc(-c2ccc(C(=O)Nc3cc(F)c(F)cc3C(=O)O)nn2)cn1

ΔTm [11]: 0 °C | EC50 [12]: 38 µM
Structure (SMILES): O=C(Nc1cc(F)c(F)cc1C(=O)O)c1ccc(-c2ccoc2)nn1

ΔTm ([11]; filed as agonist): 3.5 °C | EC50 [12]: 10.5 µM
Structure (SMILES): N#Cc1ccn(-c2ccc(C(=O)Nc3cc(F)c(F)cc3C(=O)O)nn2)c1

ΔTm ([11]; filed as agonist): -1 °C | EC50 [12]: > 100 µM
Structure (SMILES): O=C(Nc1cc(F)c(F)cc1C(=O)O)c1ccc(N2CCCC2)nn1

ΔTm ([11]; filed as agonist): 3.5 °C | EC50 [12]: 1940 µM
Structure (SMILES): O=C(Nc1ccc(C(F)(F)F)cc1C(=O)O)c1ccc(-c2ccnnc2)nn1

EC50 [12]: 3.51 µM | EC50 [1]: 34.5 µM | EC50 [2]: > 200 µM | EC50 [13]: > 100 µM
Structure (SMILES): COc1cc2cc(C(=O)CCC(=O)O)sc2cc1OC

ΔTm [11]: 0 °C | EC50 [12]: 32.7 µM
Structure (SMILES): O=C(Nc1cc(F)c(F)cc1C(=O)O)c1ccc(-c2cccnc2)nn1

ΔTm [11]: 0 °C | EC50 [12]: 29.9 µM
Structure (SMILES): CC(=O)c1ccn(-c2ccc(C(=O)Nc3cc(F)c(F)cc3C(=O)O)nn2)c1

ΔTm ([11]; filed as agonist): 3.5 °C | EC50 [12]: 17.6 µM
Structure (SMILES): O=C(Nc1cc(F)c(F)cc1C(=O)O)c1ccc(-c2cnsc2)nn1

ΔTm [11]: 0 °C | EC50 [12]: > 100 µM
Structure (SMILES): COc1ccc(NC(=O)c2ccc(-c3ccnnc3)nn2)c(C(=O)O)c1

ΔTm ([11]; filed as agonist): 6 °C | EC50 [12]: 17.9 µM
Structure (SMILES): O=C(Nc1cc(F)c(F)cc1C(=O)O)c1ccc(-c2ccnnc2)nn1

ΔTm ([11]; filed as agonist): 1.5 °C | EC50 [12]: 5.96 µM
Structure (SMILES): COc1ccc(C(=O)O)c(NC(=O)c2ccc(-c3ccnnc3)nn2)c1

clearance [5]: 123 mL/min/kg | ΔTm [14]: 9 °C | Vd [6]: 3.62 L/kg | AUC(0-inf) [7]: 1370 ng·h/mL | MRT inf [8]: 0.495 h | AUC(0-t) at 24 h [9]: 1360 ng·h/mL | half-life [10]: 1.82 h | EC50 [2]: > 200 µM | IC50 [3]: 1.6 µM
Structure (SMILES): O=C(Nc1cc(F)c(F)cc1C(=O)O)c1ccc(-n2ccnc2)nn1
inhibition (B16-F10 [15]): inactive | inhibition (B16-F10 [16]): Active

EC50 [1]: > 200 µM | EC50 [2]: > 200 µM
Structure (SMILES): O=C(Nc1cc(Br)ccc1C(=O)O)c1ccc(-c2ccnnc2)nn1
Activity (THP-1): Non-Toxic

ΔTm ([11]; filed as agonist): 0.5 °C | EC50 [12]: 33.6 µM
Structure (SMILES): O=C(Nc1cc(F)c(F)cc1C(=O)O)c1ccc(-n2cccc2)nn1

EC50 [1]: 35.3 µM | EC50 [2]: > 200 µM | IC50 [3]: 0.93 µM
Structure (SMILES): O=C(Nc1cc(Cl)c(F)cc1C(=O)O)c1ccc(-c2ccnnc2)nn1
Activity (THP-1): Non-Toxic

ΔTm ([11]; filed as agonist): 0.5 °C | EC50 [12]: 21.3 µM
Structure (SMILES): COc1cc(NC(=O)c2ccc(-c3ccnnc3)nn2)c(C(=O)O)cc1OC

ΔTm [11]: 0 °C | EC50 [12]: > 100 µM
Structure (SMILES): O=C(Nc1cc(C(F)(F)F)ccc1C(=O)O)c1ccc(-c2ccnnc2)nn1
